US7671212B2, “Isothiazole dioxides as CXC- and CC-chemokine receptor ligands” (Schering Corporation, priority 2003, dated 2010)
“And” between values parts separate entries of the source, which are not always exact repeats. Equal values may be shown once.

What was measured:
hCXCR2 = molecular target: T1, hCXCR2 (Homo sapiens, UniProt P25025); test: CXCR2 SPA assay ([125I]-IL-8 binding, incl. alternative 50 μl and 200 μl protocols); conditions: hCXCR2-CHO membranes
T1 construct: purchased Biosignal / Biosignal Packard; host or cells: CHO
T1 sequence (P25025 1-360): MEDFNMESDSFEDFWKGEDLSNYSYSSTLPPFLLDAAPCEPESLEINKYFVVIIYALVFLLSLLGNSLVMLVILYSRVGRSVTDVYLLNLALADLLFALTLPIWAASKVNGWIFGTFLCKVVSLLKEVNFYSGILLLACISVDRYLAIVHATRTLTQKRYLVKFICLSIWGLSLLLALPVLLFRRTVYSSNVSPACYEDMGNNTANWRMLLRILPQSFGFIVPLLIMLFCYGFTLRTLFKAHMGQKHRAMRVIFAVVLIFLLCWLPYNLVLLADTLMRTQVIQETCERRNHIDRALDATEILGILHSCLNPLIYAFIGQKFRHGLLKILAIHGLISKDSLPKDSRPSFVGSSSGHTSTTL
Protocol: For each well of a 96 well plate, a reaction mixture of 4 μg hCXCR2-CHO overexpressing membranes (Biosignal) and 200 μg/well WGA-SPA beads (Amersham) in 100 μl was prepared in CXCR2 assay buffer (25 mM HEPES, pH 7.4, 2 mM CaCl2, 1 mM MgCl2). A 0.4 nM stock of ligand, [125I]-IL-8 (NEN), was prepared in the CXCR2 assay buffer. 20× stock solutions of test compounds were prepared in DMSO (Sigma). A 6× stock solution of GRO-α (R&D) was prepared in CXCR2 assay buffer. The above solutions were added to a 96-well assay plate (PerkinElmer or Corning) as follows: 10 μl test compound or DMSO, 40 ul CXCR2 assay buffer or GRO-α stock, 100 μl of reaction mixture, 50 μl of ligand stock (Final [Ligand]=0.1 nM). When 40× stock solutions of test compounds in DMSO were prepared, then the above protocol was used except instead 5 μl test compound or DMSO and 45 μl CXCR2 assay buffer were used.
Alternative CXCR2 SPA Assay
Protocol Using the CXCR2 50 μl Assay
For each 50 μl reaction, a working stock of 0.031 μg/μl hCXCR2-CHO over-expressing membranes with a specific activity of 0.4 pmol/mg (Biosignal Packard) and 2.5 μg/μl WGA-SPA beads (Perkin Elmer Life Sciences) was prepared in CXCR2 assay buffer (25 mM HEPES, pH 7.4, 2.0 mM CaCl2, 1 mM MgCl2) (Sigma). This mixture was incubated on ice for 5 minutes. A 0.50 nM stock of ligand, [^125I]-IL-8 (Perkin Elmer Life Sciences), was prepared in the CXCR2 assay buffer. Test compounds were first serially diluted by half-logs in DMSO (Sigma) and then diluted 13.3-fold in CXCR2 assay buffer. The above solutions were added to a Corning NBS (non-binding surface) 96-well assay plate as follows: 20 μl test compound or 7.5% DMSO (final [DMSO]=3%), 20 μl of membranes and SPA bead mixture (final [membrane]=0.625 μg/reaction; final [SPA bead]=50 μg/reaction), 10 μl of ligand stock (final [^125I-IL-8]=0.10 nM). The assay plates were incubated for 2 hours before cpm/well were determined in a Microbeta Trilux counter (Perkin Elmer Life Sciences). IC50 values were quantified using nonlinear regression analysis in GraphPad Prism.
Protocol Using the CXCR2 200 μl Assay
For each 200 μl reaction, a working stock of 0.02 μg/μl hCXCR2-CHO over-expressing membranes with a specific activity of 0.6 pmol/mg (Biosignal Packard) and 2 μg/μl WGA-SPA beads (Perkin Elmer Life Sciences) was prepared in CXCR2 assay buffer (25 mM HEPES, pH 7.4, 2.0 mM CaCl2, 1 mM MgCl2) (Sigma). This mixture was incubated on ice for 5 minutes. A 0.40 nM stock of ligand, [^125I]-IL-8 (Perkin Elmer Life Sciences), was prepared in the CXCR2 assay buffer. Test compounds were first serially diluted by half-logs in DMSO (Sigma) and then diluted […] in CXCR2 assay buffer. The above solutions were added to a Corning NBS (non-binding surface) 96-well assay plate as follows: 50 μl test compound or 10% DMSO (final [DMSO]=2.5%), 100 μl of membranes and SPA bead mixture (final [membrane]=2 μg/reaction; final [SPA bead]=200 μg/reaction), 50 μl of ligand stock (final [^125I-IL-8]=0.10 nM). The assay plates were incubated for 2 hours before cpm/well were determined in a Microbeta Trilux counter (Perkin Elmer Life Sciences). IC50 values were quantified using nonlinear regression analysis in GraphPad Prism.

hCXCR1 = molecular target: T2, hCXCR1 (Homo sapiens, UniProt P25024); test: CXCR1 SPA assay ([125I]-IL-8 binding, incl. alternative Biosignal Packard and Euroscreen membrane protocols); conditions: hCXCR1-CHO membranes
T2 construct: purchased Biosignal / Biosignal Packard; Euroscreen (alternative protocol); host or cells: CHO
T2 sequence (P25024 1-350): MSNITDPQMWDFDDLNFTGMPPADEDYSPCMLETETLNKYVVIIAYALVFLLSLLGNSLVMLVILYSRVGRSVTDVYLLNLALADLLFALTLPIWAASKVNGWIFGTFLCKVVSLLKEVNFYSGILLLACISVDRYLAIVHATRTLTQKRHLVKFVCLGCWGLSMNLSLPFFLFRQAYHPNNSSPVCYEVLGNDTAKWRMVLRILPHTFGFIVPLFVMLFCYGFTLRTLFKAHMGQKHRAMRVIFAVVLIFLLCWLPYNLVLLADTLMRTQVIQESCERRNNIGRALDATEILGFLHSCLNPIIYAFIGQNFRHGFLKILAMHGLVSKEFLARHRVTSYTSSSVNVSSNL
Protocol: For each well of a 96 well plate, a reaction mixture of 10 μg hCXCR1-CHO overexpressing membranes (Biosignal) and 200 μg/well WGA-SPA beads (Amersham) in 100 μl was prepared in CXCR1 assay buffer (25 mM HEPES, pH 7.8, 2 mM CaCl2, 1 mM MgCl2, 125 mM NaCl, 0.1% BSA) (Sigma). A 0.4 nM stock of ligand, [125I]-IL-8 (NEN) was prepared in the CXCR1 assay buffer. 20× stock solutions of test compounds were prepared in DMSO (Sigma). A 6× stock solution of IL-8 (R&D) was prepared in CXCR2 assay buffer. The above solutions were added to a 96-well assay plate (PerkinElmer) as follows: 10 μl test compound or DMSO, 40 μl CXCR1 assay buffer or IL-8 stock, 100 μl of reaction mixture, 50 μl of ligand stock (Final [Ligand]=0.1 nM).
Alternative CXCR1 SPA Assay
Protocol Using CXCR1-Expressing Membranes from Biosignal Packard
For each 50 μl reaction, a working stock of 0.25 μg/μl hCXCR1-CHO over-expressing membranes with a specific activity of 0.05 pmol/mg (Biosignal Packard) and 25 μg/μl WGA-SPA beads (Perkin Elmer Life Sciences) was prepared in CXCR1 assay buffer (25 mM HEPES, pH 7.8, 0.1 mM CaCl2, 1 mM MgCl2, 100 mM NaCl) (Sigma). […] The assay plates were incubated for 4 hours before cpm/well were determined in a Microbeta Trilux counter (Perkin Elmer Life Sciences). IC50 values were quantified using nonlinear regression analysis in GraphPad Prism. […]

CCR7 = molecular target: T3, CCR7 (Homo sapiens, UniProt P32248); test: CCR7 [35S]GTPγS exchange assay (SPA, Ba/F3-CCR7 membranes, MIP-3β); format: biochemical; conditions: 2 nM MIP-3β
T3 construct: expressed in transfected cells; host or cells: Ba/F3
T3 sequence (P32248 25-378): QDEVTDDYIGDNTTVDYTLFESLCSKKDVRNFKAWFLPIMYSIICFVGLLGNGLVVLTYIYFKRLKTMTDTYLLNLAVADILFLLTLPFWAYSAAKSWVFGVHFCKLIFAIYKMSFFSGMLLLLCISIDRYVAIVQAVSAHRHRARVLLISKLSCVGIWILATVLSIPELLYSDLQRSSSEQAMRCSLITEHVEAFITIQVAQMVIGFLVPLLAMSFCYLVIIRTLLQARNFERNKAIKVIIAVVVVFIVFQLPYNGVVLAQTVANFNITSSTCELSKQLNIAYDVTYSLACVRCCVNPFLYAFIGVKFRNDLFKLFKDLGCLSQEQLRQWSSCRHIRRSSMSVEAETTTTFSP
Protocol: CCR7 Membrane Preparation.
Ba/F3-CCR7 membranes were prepared as previously described (Hipkin et al., J. Biol. Chem., 272, 1997, 13869-76). Cells were pelleted by centrifugation, incubated in homogenization buffer (10 mM Tris-HCl, 5 mM EDTA, 3 mM EGTA, pH 7.6) and 1 μM PMSF for 30 min. on ice. The cells were then lysed with a Dounce homogenizer using stirrer type RZR3 polytron homogenizer (Caframo, Wiarton, Ont.) with 12 strokes at 900 RPM. The intact cells and nuclei were removed by centrifugation at 500×g for 5 min. The cell membranes in the supernatant were then pelleted by centrifugation at 100,000×g for 30 min. The membranes were then resuspended in glygly buffer (20 mM glycylglycine, 1 mM MgCl2, 250 mM sucrose, pH 7.2), aliquoted, quick frozen and stored at −80° C.
CCR7 [^35S]GTPγS Exchange Assay.
The exchange of guanosine 5′-[γ-^35S]triphospate ([^35S]GTPγS, triethylammonium salt; specific activity=1250 Ci/mmol; NEN Boston, Mass.) was measured using a scintillation proximity assay (SPA) as previously described (Cox, et. al., Mol. Pharmacol., 59, 2001, 707-15). […] Membrane-bound [^35S]GTPγS was measured using a 1450 Microbeta Trilux counter (Wallac, Gaithersburg, Md.).

SMILES	Ki (hCXCR2)	Ki (hCXCR1) [nM]	EC50 (CCR7) [nM]
CCOC(=O)C1=C(Nc2cccc(C(=O)N(C)C)c2O)C(N[C@H](CC)c2ccc(C)o2)=NS1(=O)=O [Example 1]	7.6 to 51 nM	–	–
CC[C@@H](NC1=NS(=O)(=O)C=C1Nc1cccc(C(=O)N(C)C)c1O)c1ccc(C)o1 [Example 2]	7.6 nM and 7.6 to 51 nM	–	–
CCOC(=O)C1=C(N[C@H](CC)c2ccccc2)C(Nc2cccc(C(=O)N(C)C)c2O)=NS1(=O)=O [Example 3]	7.6 to 51 nM	–	–

Further lines, results first:

Ki (hCXCR2)	Ki (hCXCR1) [nM]	EC50 (CCR7) [nM]	SMILES
7.6 to 51 nM	–	–	CC[C@@H](NC1=CS(=O)(=O)N=C1Nc1cccc(C(=O)N(C)C)c1O)c1ccccc1 [Example 4]
7.6 to 51 nM	–	–	CCOC(=O)C1=C(Nc2cccc(C(=O)N(C)C)c2O)C(N[C@@H](c2cc(C)c(C)o2)C(C)C)=NS1(=O)=O [Example 5]
19 nM and 7.6 to 51 nM	345	–	Cc1cc([C@H](NC2=NS(=O)(=O)C=C2Nc2cccc(C(=O)N(C)C)c2O)C(C)C)oc1C [Example 6]
–	–	9500	CCOC(=O)C1=C(Nc2cccc(C(=O)N(C)C)c2O)C(N[C@H](CC)c2cc(C(C)C)co2)=NS1(=O)=O [Example 162]
